Test results from patent US20240122182A1, “PESTICIDALLY ACTIVE HETEROCYCLIC DERIVATIVES WITH SULFUR CONTAINING SUBSTITUENTS” (SYNGENTA CROP PROTECTION AG, priority 2021, published 2024).

Experiments:
Assay type in all cases: in vivo
[1] = test system: Chilo suppressalis (Striped Rice Stemborer); assay: Activity against Chilo suppressalis (striped rice stemborer), artificial diet; details: 144 h, application rate of 200 ppm, L2 larvae, 6 days after infestation, read-out: control (mortality, anti-feeding effect, growth inhibition)
Description: 24-well microtiter plates with artificial diet were treated with aqueous test solutions prepared from 10′000 ppm DMSO stock solutions by pipetting. After drying, the plates were infested with L2 larvae (6-8 per well). The samples were assessed for mortality, anti-feeding effect, and growth inhibition in comparison to untreated samples 6 days after infestation. Control of Chilo suppressalis by a test sample is given when at least one of the categories mortality, anti-feedant effect, and growth inhibition is higher than the untreated sample.

[2] = test system: Diabrotica Balteata (Corn Root Worm); assay: Activity against Diabrotica balteata (corn root worm), maize sprouts sprayed; details: 96 h, application rate of 200 ppm, L2 larvae, 4 days after infestation, read-out: effect in at least one of the two categories (mortality or growth inhibition)
Description: Maize sprouts placed onto an agar layer in 24-well microtiter plates were treated with aqueous test solutions prepared from 10′000 ppm DMSO stock solutions by spraying. After drying, the plates were infested with L2 larvae (6 to 10 per well). The samples were assessed for mortality and growth inhibition in comparison to untreated samples 4 days after infestation.

[3] = test system: Plutella xylostella (Diamond Back Moth); assay: Activity against Plutella xylostella (diamond back moth), artificial diet; details: 192 h, application rate of 200 ppm, eggs, 8 days after infestation, read-out: effect in at least one of the two categories (mortality or growth inhibition)
Description: 24-well microtiter plates with artificial diet were treated with aqueous test solutions prepared from 10′000 ppm DMSO stock solutions by pipetting. After drying, Plutella eggs were pipetted through a plastic stencil onto a gel blotting paper and the plate was closed with it. The samples were assessed for mortality and growth inhibition in comparison to untreated samples 8 days after infestation.

[4] = test system: Spodoptera littoralis (Egyptian Cotton Leaf Worm); assay: Activity against Spodoptera littoralis (Egyptian cotton leaf worm), cotton leaf discs sprayed; details: foliar, 72 h, application rate of 200 ppm, L1 larvae, 3 days after infestation, read-out: control (mortality, anti-feeding effect, growth inhibition)
Description: Cotton leaf discs were placed onto agar in 24-well microtiter plates and sprayed with aqueous test solutions prepared from 10′000 ppm DMSO stock solutions. After drying the leaf discs were infested with five L1 larvae. The samples were assessed for mortality, anti-feeding effect, and growth inhibition in comparison to untreated samples 3 days after infestation. Control of Spodoptera littoralis by a test sample is given when at least one of the categories mortality, anti-feedant effect, and growth inhibition is higher than the untreated sample.

[5] = test system: Carpocapsa (Cydia) Pomonella (Codling Moth); assay: Activity against Carpocapsa (Cydia) pomonella (codling moth), larvicide, feeding/contact; details: 336 h, application rate of 12.5 ppm, L1 larvae, 14 days after infestation, read-out: effect in at least one of the two categories (mortality or growth inhibition)
Description: Diet cubes coated with paraffin were sprayed with diluted test solutions in an application chamber. After drying off the treated cubes (10 replicates) were infested with 1 L1 larvae. Samples were incubated at 26-27° C. and checked 14 days after infestation for mortality and growth inhibition. The following compounds gave an effect of at least 80% in at least one of the two categories (mortality or growth inhibition) at an application rate of 12.5 ppm: P1, P2, P3, P5, P9, P10, P11, P12, P14, P17, P19, P20, P21, P23, P24, P30, P31.

[6] = test system: Nilaparvata lugens (Brown Plant Hopper); assay: Activity against Nilaparvata lugens (brown plant hopper), larvicide, systemic into water; details: 168 h, application rate of 12.5 ppm, N3 nymphs, 7 days after infestation
Description: Larvicide, systemic into water Rice plants cultivated in a nutritive solution were treated with the diluted test solutions into nourishing cultivation system. 1 day after application plants were infested with ˜20 N3 nymphs. 7 days after infestation samples were assessed for mortality and growth regulation.

[7] = test system: Myzus persicae (Green Peach Aphid); assay: Activity against Myzus persicae (green peach aphid), feeding/contact activity; details: 144 h, application rate of 200 ppm, mixed ages, 6 days after infestation
Description: Sunflower leaf discs were placed onto agar in a 24-well microtiter plate and sprayed with aqueous test solutions prepared from 10′000 ppm DMSO stock solutions. After drying, the leaf discs were infested with an aphid population of mixed ages. The samples were assessed for mortality 6 days after infestation.

[8] = test system: Euschistus heros (Neotropical Brown Stink Bug); assay: Activity against Euschistus heros (neotropical brown stink bug), soybean leaves sprayed; details: 120 h, application rate of 200 ppm, N2 nymphs, 5 days after infestation, read-out: effect in at least one of the two categories (mortality or growth inhibition)
Description: Soybean leaves on agar in 24-well microtiter plates were sprayed with aqueous test solutions prepared from 10′000 ppm DMSO stock solutions. After drying the leaves were infested with N2 nymphs. The samples were assessed for mortality and growth inhibition in comparison to untreated samples 5 days after infestation.

CCSc1cc(OCC(C)(F)F)cnc1-c1cc2c(cn1)N(CC(F)(F)C(F)(F)F)C(=O)CC2 [P25, 6-[5-(2,2-difluoropropoxy)-3-ethylsulfanyl-2-pyridyl]-1-(2,2,3,3,3-pentafluoropropyl)-3,4-dihydro-1,7-naphthyridin-2-one]
≥ 80%: mortality at 200 ppm [1] | percent effect (mortality or growth inhibition) at 200 ppm [2] | percent effect (mortality or growth inhibition) at 200 ppm [3] | mortality at 200 ppm [4]

CC[S+]([O-])c1cc(OCC(C)(F)F)cnc1-c1cc2c(cn1)N(CC(F)(F)C(F)(F)F)C(=O)OC2 (centres unmarked) [P32, 6-[5-(2,2-difluoropropoxy)-3-ethylsulfinyl-2-pyridyl]-1-(2,2,3,3,3-pentafluoropropyl)-4H-pyrido[3,4-d][1,3]oxazin-2-one]
≥ 80%: percent effect (mortality or growth inhibition) at 200 ppm [2] | percent effect (mortality or growth inhibition) at 200 ppm [3] | mortality at 200 ppm [4]

CCS(=O)(=O)c1cc(C(C)(C)F)cnc1-c1cc2c(cn1)N(CC(F)(F)C(F)(F)F)C(=O)OC2 [P30, 6-[3-ethylsulfonyl-5-(1-fluoro-1-methyl-ethyl)-2-pyridyl]-1-(2,2,3,3,3-pentafluoropropyl)-4H-pyrido[3,4-d][1,3]oxazin-2-one]
≥ 80%: mortality at 200 ppm [1] | percent effect (mortality or growth inhibition) at 200 ppm [2] | percent effect (mortality or growth inhibition) at 200 ppm [3] | mortality at 200 ppm [4] | percent effect (mortality or growth inhibition) at 12.5 ppm [5] | mortality at 12.5 ppm [6]

CCSc1cc(N(C)C(C)=O)cnc1-c1cc2c(cn1)N(CC(F)(F)C(F)(F)F)C(=O)CC2 [P7, N-[5-ethylsulfanyl-6-[2-oxo-1-(2,2,3,3,3-pentafluoropropyl)-3,4-dihydro-1,7-naphthyridin-6-yl]-3-pyridyl]-N-methyl-acetamide]
≥ 80%: mortality at 200 ppm [7]

CCS(=O)(=O)c1ccc(-n2cncn2)nc1-c1cc2c(cn1)N(CC(F)(F)C(F)(F)F)C(=O)CC2 [P13, 6-[3-ethylsulfonyl-6-(1,2,4-triazol-1-yl)-2-pyridyl]-1-(2,2,3,3,3-pentafluoropropyl)-3,4-dihydro-1,7-naphthyridin-2-one]
≥ 80%: mortality at 200 ppm [1] | percent effect (mortality or growth inhibition) at 200 ppm [2] | mortality at 200 ppm [7] | percent effect (mortality or growth inhibition) at 200 ppm [3] | mortality at 200 ppm [4]

CCS(=O)(=O)c1cc(OCC(C)(F)F)cnc1-c1cc2c(cn1)N(CC(F)(F)C(F)(F)F)C(=O)OC2 [P31, 6-[5-(2,2-difluoropropoxy)-3-ethylsulfonyl-2-pyridyl]-1-(2,2,3,3,3-pentafluoropropyl)-4H-pyrido[3,4-d][1,3]oxazin-2-one]
≥ 80%: mortality at 200 ppm [1] | percent effect (mortality or growth inhibition) at 200 ppm [2] | percent effect (mortality or growth inhibition) at 200 ppm [3] | mortality at 200 ppm [4] | percent effect (mortality or growth inhibition) at 12.5 ppm [5] | mortality at 12.5 ppm [6]

CCSc1cc(OCC(C)(F)F)cnc1-c1cc2c(cn1)N(CC(F)(F)C(F)(F)F)C(=O)OC2 [P27, 6-[5-(2,2-difluoropropoxy)-3-ethylsulfanyl-2-pyridyl]-1-(2,2,3,3,3-pentafluoropropyl)-4H-pyrido[3,4-d][1,3]oxazin-2-one]
≥ 80%: mortality at 200 ppm [1] | percent effect (mortality or growth inhibition) at 200 ppm [2] | percent effect (mortality or growth inhibition) at 200 ppm [8] | percent effect (mortality or growth inhibition) at 200 ppm [3] | mortality at 200 ppm [4]

CCSc1cc(C2(C#N)CC2)cnc1-c1cc2c(cn1)N(CC(F)(F)F)C(=O)OC2 [P35, 1-[5-ethylsulfanyl-6-[2-oxo-1-(2,2,2-trifluoroethyl)-4H-pyrido[3,4-d][1,3]oxazin-6-yl]-3-pyridyl]cyclopropanecarbonitrile]
≥ 80%: percent effect (mortality or growth inhibition) at 200 ppm [2] | percent effect (mortality or growth inhibition) at 200 ppm [3]

CCS(=O)(=O)c1cc(-n2ccc(Cl)n2)cnc1-c1cc2c(cn1)N(CC(F)(F)C(F)(F)F)C(=O)CC2 [P5, 6-[5-(3-chloropyrazol-1-yl)-3-ethylsulfonyl-2-pyridyl]-1-(2,2,3,3,3-pentafluoropropyl)-3,4-dihydro-1,7-naphthyridin-2-one]
≥ 80%: mortality at 200 ppm [1] | percent effect (mortality or growth inhibition) at 200 ppm [2] | percent effect (mortality or growth inhibition) at 200 ppm [8] | percent effect (mortality or growth inhibition) at 200 ppm [3] | mortality at 200 ppm [4] | percent effect (mortality or growth inhibition) at 12.5 ppm [5]

CCSc1cc(C(F)(F)F)cnc1-c1cc2c(cn1)N(CC(F)(F)C(F)(F)F)C(=O)OC2 [P26, 6-[3-ethylsulfanyl-5-(trifluoromethyl)-2-pyridyl]-1-(2,2,3,3,3-pentafluoropropyl)-4H-pyrido[3,4-d][1,3]oxazin-2-one]
≥ 80%: mortality at 200 ppm [1] | percent effect (mortality or growth inhibition) at 200 ppm [2] | percent effect (mortality or growth inhibition) at 200 ppm [3]

CCS(=O)(=O)c1cc(Oc2ccccn2)cnc1-c1cc2c(cn1)N(CC(F)(F)C(F)(F)F)C(=O)CC2 [P21, 6-[3-ethylsulfonyl-5-(2-pyridyloxy)-2-pyridyl]-1-(2,2,3,3,3-pentafluoropropyl)-3,4-dihydro-1,7-naphthyridin-2-one]
≥ 80%: mortality at 200 ppm [1] | percent effect (mortality or growth inhibition) at 200 ppm [2] | percent effect (mortality or growth inhibition) at 200 ppm [8] | percent effect (mortality or growth inhibition) at 200 ppm [3] | mortality at 200 ppm [4] | percent effect (mortality or growth inhibition) at 12.5 ppm [5]

CCSc1cc(N(C)C(C)=O)cnc1-c1cc2c(cn1)N(CC(F)(F)C(F)(F)F)C(=O)OC2 [P29, N-[5-ethylsulfanyl-6-[2-oxo-1-(2,2,3,3,3-pentafluoropropyl)-4H-pyrido[3,4-d][1,3]oxazin-6-yl]-3-pyridyl]-N-methyl-acetamide]
≥ 80%: mortality at 200 ppm [1] | mortality at 200 ppm [7] | percent effect (mortality or growth inhibition) at 200 ppm [3] | mortality at 200 ppm [4]

CCSc1cc(C(C)(C)C#N)cnc1-c1cc2c(cn1)N(CC(F)(F)C(F)(F)F)C(=O)OC2 [P33, 2-[5-ethylsulfanyl-6-[2-oxo-1-(2,2,3,3,3-pentafluoropropyl)-4H-pyrido[3,4-d][1,3]oxazin-6-yl]-3-pyridyl]-2-methyl-propanenitrile]
≥ 80%: mortality at 200 ppm [1] | percent effect (mortality or growth inhibition) at 200 ppm [2] | percent effect (mortality or growth inhibition) at 200 ppm [8]

CCSc1cc(C2(C#N)CC2)cnc1-c1cc2c(cn1)N(CC(F)(F)F)C(=O)CC2 [P6, 1-[5-ethylsulfanyl-6-[2-oxo-1-(2,2,2-trifluoroethyl)-3,4-dihydro-1,7-naphthyridin-6-yl]-3-pyridyl]cyclopropanecarbonitrile]
≥ 80%: mortality at 200 ppm [1] | percent effect (mortality or growth inhibition) at 200 ppm [2] | percent effect (mortality or growth inhibition) at 200 ppm [8] | percent effect (mortality or growth inhibition) at 200 ppm [3] | mortality at 200 ppm [4]

CCSc1cc(NC)cnc1-c1cc2c(cn1)N(CC(F)(F)C(F)(F)F)C(=O)OC2 [P28, 6-[3-ethylsulfanyl-5-(methylamino)-2-pyridyl]-1-(2,2,3,3,3-pentafluoropropyl)-4H-pyrido[3,4-d][1,3]oxazin-2-one]
≥ 80%: percent effect (mortality or growth inhibition) at 200 ppm [3]

CCS(=O)(=O)c1ccc(-n2cncn2)nc1-c1cc2c(cn1)N(CC(F)(F)C(F)(F)F)C(=O)OC2 [P16, 6-[3-ethylsulfonyl-6-(1,2,4-triazol-1-yl)-2-pyridyl]-1-(2,2,3,3,3-pentafluoropropyl)-4H-pyrido[3,4-d][1,3]oxazin-2-one]
≥ 80%: mortality at 200 ppm [1] | percent effect (mortality or growth inhibition) at 200 ppm [2] | mortality at 200 ppm [7] | percent effect (mortality or growth inhibition) at 200 ppm [3] | mortality at 200 ppm [4]
